{"source": "patent US7232821B2", "about": "“(2-((2-alkoxy)-phenyl) -cyclopent-1enyl) aromatic carbo and heterocyclic acid and derivatives” (Glaxo Group Limited, priority 2002, dated 2007)", "origin": "cited, not measured here", "key": {"[1]": {"test_system": "rat model of chronic constriction injury"}, "[2]": {"test_system": "rodent model of post-operative pain"}}, "data": [{"smiles": "Cc1cc(Cl)ccc1S(=O)(=O)NC[C@H]1C2CCC(CC2)[C@@H]1/C=C\\CCCC(=O)O", "note": "[ONO-8711]", "values": [{"measurement": "hyperalgesia and allodynia", "setting": "[1]", "result": "reduces hyperalgesia and allodynia"}, {"measurement": "mechanical hyperalgesia", "setting": "[2]", "result": "inhibits mechanical hyperalgesia"}]}]}
